Measurements published in patent US4968494A, “Methods and compositions for thrombolytic therapy” (Merck & Co., Inc., priority 1990, dated 1990).

What was measured:
Factor XIIIa = target: T1, Factor XIIIa (Homo sapiens, UniProt P00488); assay: Factor XIIIa inhibitor assay (incorporation of ^14 C-putrescine into casein catalyzed by Factor XIIIa); format: biochemical; conditions: read-out: Percent Inhibition
T1 construct: from tissue; host or cells: human plasma
T1 sequence (P00488 39-732 limits assumed): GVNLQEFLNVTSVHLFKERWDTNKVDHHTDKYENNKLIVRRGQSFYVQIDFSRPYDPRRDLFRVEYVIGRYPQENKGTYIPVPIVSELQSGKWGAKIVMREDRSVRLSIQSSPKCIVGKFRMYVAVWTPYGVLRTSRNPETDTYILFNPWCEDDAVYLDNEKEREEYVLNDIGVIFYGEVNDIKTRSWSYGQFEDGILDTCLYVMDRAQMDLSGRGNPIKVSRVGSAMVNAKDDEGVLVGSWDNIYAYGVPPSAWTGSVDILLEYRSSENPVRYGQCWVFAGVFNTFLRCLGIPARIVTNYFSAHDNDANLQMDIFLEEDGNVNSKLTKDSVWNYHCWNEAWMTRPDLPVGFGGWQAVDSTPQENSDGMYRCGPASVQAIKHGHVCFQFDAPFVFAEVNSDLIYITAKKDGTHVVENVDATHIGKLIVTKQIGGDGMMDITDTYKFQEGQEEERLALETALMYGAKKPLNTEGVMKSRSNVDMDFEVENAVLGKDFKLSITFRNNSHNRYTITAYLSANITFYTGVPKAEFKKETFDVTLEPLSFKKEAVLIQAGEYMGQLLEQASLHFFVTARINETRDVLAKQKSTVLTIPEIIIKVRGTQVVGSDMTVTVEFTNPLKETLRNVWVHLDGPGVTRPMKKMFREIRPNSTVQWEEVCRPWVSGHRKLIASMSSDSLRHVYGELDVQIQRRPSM
Description: The Factor XIIIa inhibitor assay is based on the incorporation of ^14 C-putrescine into casein catalyzed by Factor XIIIa. The assay is carried out employing the procedure described in Methods in Enzymology, Vol. 45, Ch 15., pages 177-191 (1976) and using Factor XIII (F XIII) isolated from human plasma. The procedure is summarized briefly and schematically illustrated as follows: [drawing 16]
Factor XIII assay mixtures are prepared by adding stepwise, appropriate prepared solutions of thrombin and dithiothreitol (DTT) to a mixture comprising Factor XIII in glycerol/water and tris(hydroxymethyl)aminomethane hydrochloride (Tris.cndot.HCl). To a portion of the mixture is added calcium chloride as source of calcium ions required for enzyme activity and to the remaining mixture is added instead of calcium ions ethylenediaminetetracetic acid (EDTA) which serves as a blank for background.
A substrate mixture is prepared from ^14 C-putrescine and […].
The assay tubes and control tubes are charged with the substrate mixture and incubated at 37° C. for 220 minutes. Samples are withdrawn from each tube, spotted onto a filter disk which is then immersed in ice cold trichloroacetic acid solution to precipitate the casein on the filter. The filter is then washed to remove unincorporated or free ^14 C-putrescine and after drying is counted for ^14 C-putrescine incorporated to casein from which percent activity and/or inhibition can be calculated.

blood clots = assay: in vitro clot lysis assay (TPA-catalyzed lysis of ^125 I-fibrin labelled clot); format: biochemical; conditions: 200 μM cerulenin, buffer pH 7.5
Description: In the assay, whole blood or plasma is charged with ^125 I-fibrinogen. Thrombin is added to initiate clot formation and subsequently incubated for 2 hours to complete the cross-linking by endogenous Factor XIII. Factor XIIIa inhibitor is added prior to clot initiation or at various times during the 2-hour incubation. At the end of this period, the labelled clot is washed and lysis is initiated by exogenous tissue plasminogen activator (TPA). Exogenous plasminogen is employed in some experiments. Endogenous plasminogen is used for others. Clot dissolution as a function of time is monitored by the release of solubilized ^125 I-fibrin-derived fragments.
In FIGS. 1 and 2, the open symbols indicate absence of cerulenin and the closed symbols indicate the presence of 200μM cerulenin at the time of clot formation. Clot lysis is conducted in buffer, pH 7.5; 5 ng/mL TPA represents approximate physiologic concentration. 50 to […] represents pharmacologic concentration range. […] FIG. 2 studies employed glu-plasminogen levels at approximately 10 percent physiologic level (12μ/mL)

inhibition at 13 µM (Factor XIIIa; 1.3 × 10^-5 M) [%]	inhibition at 1.5 µM (Factor XIIIa; 1.5 × 10^-6 M) [%]	inhibition at 0.17 µM (Factor XIIIa; 1.7 × 10^-7 M) [%]	inhibition at 4.5 µM (Factor XIIIa; 4.5 × 10^-6 M) [%]	inhibition at 0.5 µM (Factor XIIIa; 5 × 10^-7 M) [%]	inhibition at 62 µM (Factor XIIIa; 6.2 × 10^-5 M) [%]	inhibition at 6.2 µM (Factor XIIIa; 6.2 × 10^-6 M) [%]	inhibition at 0.62 µM (Factor XIIIa; 6.2 × 10^-7 M) [%]	SMILES	lysis rates (blood clots; 12 μg/mL exogenous glu-plasminogen, TPA, FIG. 2)	rates and extents of lysis (blood clots; no exogenous plasminogen, physiological and pharmacological levels of TPA, FIG. 1)
91	52	9	78	19	–	–	–	O=C(O)C=Cc1nc2ccccc2[nH]1 [3-(Benzimidazol-2-yl)-acrylic acid, 3-(benzimidazol-2-yl)acrylic acid]	–	–
–	–	–	–	–	100	64	22	C/C=C/C/C=C/CCC(=O)[C@H]1O[C@H]1C(N)=O [Cerulenin, (2R,3S)-2,3-epoxy-4-oxo-7E,10E-dodecadienamide]	lysis rates were further enhanced	enhanced rates and extents of lysis
